The values that follow come from paper PMC5635289, “Differential Effects of Angelicin Analogues on NF-κB Activity and IL-8 Gene Expression in Cystic Fibrosis IB3-1 Cells” (Mediators of Inflammation, 2017).

In one experiment the target is T1, NF-κB p50 (Homo sapiens, UniProt P19838).
T1 construct: This assay was performed using purified NF-κB p50; purchased Promega
T1 sequence (P19838 1-433 limits assumed): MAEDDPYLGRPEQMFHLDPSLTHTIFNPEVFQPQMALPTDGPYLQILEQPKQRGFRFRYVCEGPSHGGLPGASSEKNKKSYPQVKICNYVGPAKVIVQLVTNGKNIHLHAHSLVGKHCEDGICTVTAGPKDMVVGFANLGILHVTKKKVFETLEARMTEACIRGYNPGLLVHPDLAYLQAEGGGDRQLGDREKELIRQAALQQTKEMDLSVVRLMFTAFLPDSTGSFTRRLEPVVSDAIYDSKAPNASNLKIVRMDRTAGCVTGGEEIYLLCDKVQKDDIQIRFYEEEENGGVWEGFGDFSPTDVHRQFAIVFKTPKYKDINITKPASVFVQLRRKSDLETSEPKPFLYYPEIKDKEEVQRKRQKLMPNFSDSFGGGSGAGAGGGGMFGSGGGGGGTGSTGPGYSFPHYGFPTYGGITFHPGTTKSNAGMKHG
Kind of experiment: EMSA, inhibition of NF-κB/DNA interactions. The format is binding. Conditions: NF-κB p50 and 32P-labeled NF-κB oligonucleotide, MIC = minimal inhibitory concentration, 12.5 μM was the lowest concentration used. As to the method:
Electrophoretic mobility shift assays were performed using double-stranded ^32P-labeled oligonucleotides as target DNA. Binding reactions were set up as previously described in binding buffer (10% glycerol, 0.05% NP-40, 10 mM Tris-HCl pH 7.5, 50 mM NaCl, 0.5 mM DTT, and 10 mM MgCl2), in the presence of 0.1 μl/20 μl of NF-κB p50 (50 gsu) (Promega, Madison, WI, USA) and 0.25 ng of labeled oligonucleotide, in a total volume of 20 μl. After 30 min binding at room temperature, samples were electrophoresed at constant voltage (200 V for 30 min) through a low ionic strength (0.25 TBE buffer) (1 TBE/40.089 M Tris-borate, 0.002 M EDTA) on 6% polyacrylamide gels until the tracking dye (bromophenol blue) reached the bottom of a 16 cm slab. Gels were dried and exposed for autoradiography with intensifying screens at […]. In these experiments, DNA/protein complexes migrate through the gel with slower efficiency. In studies on the inhibitors of protein/DNA interactions, addition of the reagents was as follows: (i) nuclear factors, (ii) active principles, (iii) binding buffer, and (iv) labeled oligonucleotides mimicking the binding sites for TF to be modulated. The nucleotide sequence of double-stranded target DNA utilized in these experiments was 5′-CGC TGG GGA CTT TCC ACG G-3′ (sense strand, NF-κB). The synthetic oligonucleotides utilized in this study were purchased from Sigma Genosys (Sigma Genosys, Cambs, UK). To calculate the effective concentrations, three different autoradiograms obtained from different time exposures were scanned and compared to control EMSA performed without addition of angelicin analogues (two independent experiments were performed).
The effects of TMA derivatives on NF-κB- (nuclear factor-kappaB-) mediated induction of proinflammatory genes was verified first in vitro by electrophoretic mobility shift assay (EMSA) with the aim to verify and quantify the possible inhibition of NF-κB/DNA interactions. This assay was performed using purified NF-κB p50 and ^32P-labeled target NF-κB double-stranded oligonucleotide mimicking the NF-κB consensus sequence present within the IL-8 gene promoter.
(In general: In EMSA bound probe runs differently from free probe, usually more slowly.)

The next experiment deals with IL-8 mRNA. The experiment in a line: RT-qPCR quantification of IL-8 mRNA in TNF-α-induced IB3-1 cells. The format is cell-based, human. The settings on record: Homo sapiens, IB3-1, 24 h, TNF-α-induced IB3-1 cells, RT-qPCR, na = not active at the used concentrations. As to the method: Monolayers of 60% confluent IB3-1 cells were seeded in 6- or 12-well plates in LHC-8 medium in the presence of 5% FBS. After 24 h, pure derivatives were added, 5 h before stimulation with TNF-α 80 ng/ml (ORF Genetics, Kopavogur, Iceland), and incubated for a further 24 h. Total RNA was extracted using TRIzol Reagent (Sigma-Aldrich, St. Louis, MO) following the manufacturer's instructions. Reverse transcription (RT) was performed using Reverse Transcription System kit (Promega, Madison, WI): 1 μg of total RNA was reverse transcribed in the presence of 5 mM MgCl2, 1X reverse transcription buffer (10 mM Tris-HCl, 50 mM KCl, and 0.1% Triton X-100), 1 mM each dNTPs, 20 U recombinant Rnasin Ribonuclease Inhibitor, 15 U AMV Reverse Transcriptase, and 0.5 μg oligo(dT)15 primers in a total volume of 20 μl for 10 min at 70°C and 60 min at 42°C. The resulting cDNA was quantified by relative quantitative real-time PCR (real-time qPCR). For real-time qPCR, 1 μl of cDNA was used for each SYBR Green reaction to quantify the relative expression of IL-8. Each 25 μl of total reaction volume contained 1 μl of cDNA, 10 pmol of primers, 1 iQTM SYBR Green Supermix (Bio-Rad Laboratories Inc., Hercules, CA). Real-time PCRs were performed for a total of 40 cycles (denaturation, 95°C for 10 s; annealing, 68°C for 30 s for IL-8, 65°C for 30 s for IL-6; elongation, 72°C for 60 s) using an iCycler IQ5 (Bio-Rad Laboratories Inc., Hercules, CA). Primer sequences were as follows: IL-8 forward: 5′-GTGCAGTTTTGCCAAGGAGT-3′ and IL-8 reverse: 5′-TTATGAATTCTCAGCCCTCTTCAAAAACTTCTC-3′. The relative proportions of each amplified template were determined utilizing the threshold cycle (CT) value for each performed PCR. The DDCt method was used to compare gene expression data. Each sample was quantified in duplicate. Changes in mRNA expression level were calculated following normalization with the GAPDH calibrator gene (housekeeping gene) and expressed as fold change over untreated samples [24]. Duplicates of negative controls (no template cDNA) were also run with every experimental plate to assess specificity and indicate potential contamination.
With the aim to study the effective anti-inflammatory properties of these new psoralen derivatives, we decided to further characterize the TMA derivatives for their potential activities on the expression of IL-8 gene, known to be involved in the lung inflammatory process in CF. […] More specifically, we were first interested in identifying compounds with low antiproliferative activity, but effective in downmodulating inflammatory gene expression without achieving a full suppression of these genes. We therefore employed IB3-1 cystic fibrosis cells, incubated for 5 h with two concentrations (1 μM and 10 μM) of selected compounds, and then treated with TNF-α ([…]). In the IB3-1 cystic fibrosis cellular model, NF-κB-dependent genes, including the gene encoding for the proinflammatory protein IL-8, generally are activated following infection with P. aeruginosa or treatment with TNF-α or IL-1β [26, 28, 31]. This feature is very important in the pathophysiology of CF, since several clinical complications are caused by exacerbation of this inflammatory response. After 1 day of incubation, cellular RNA was isolated for RT-qPCR analysis. All the TMA analogues found to be active in inhibiting NF-κB/DNA interactions were analyzed for their effects on inhibition of TNF-α-induced accumulation of IL-8 mRNA.
Background: Real-time PCR tracks product formation cycle by cycle.

For the compound `Cc1oc2c(C)cc3c(C)cc(=O)oc3c2c1C` [Compound 1], the “Inhibition of NF-κB/DNA complex (MIC)” value on NF-κB p50 is recorded as <12.5 (^∗) μM. Also, the inhibition (as a rule, the relative decrease from the control value, in per cent) at 1 µM in the experiment with IL-8 mRNA (1 μM compound) is 57%. The same compound yielded an inhibition at 10 µM in the experiment on IL-8 mRNA (10 μM compound) of 56%.
